Assay results from article PMC12120022, “Discovery and chemical optimisation of a potent, Bi-cyclic antimicrobial inhibitor of Escherichia coli PBP3” (Communications Biology, 2025).
Where a SMILES comes first, the peptide text is derived from it.

Each compound was assayed against T1, EcPBP3 (Escherichia coli, UniProt P0AD68) (assay: SPR binding assay on immobilised EcPBP3). Details: 37 °C, kinetic fitting; NB = no binding at 2500 nM (Tables S-4, S-5) or 5000 nM (Table 1); read-out: Kd (nM) by SPR (geomean).
T1 construct: For assays, selections and SPR a construct with residues 60–588 which has the N-terminal domain, but not the transmembrane helix, was used; made in house
T1 sequence (P0AD68 60-588): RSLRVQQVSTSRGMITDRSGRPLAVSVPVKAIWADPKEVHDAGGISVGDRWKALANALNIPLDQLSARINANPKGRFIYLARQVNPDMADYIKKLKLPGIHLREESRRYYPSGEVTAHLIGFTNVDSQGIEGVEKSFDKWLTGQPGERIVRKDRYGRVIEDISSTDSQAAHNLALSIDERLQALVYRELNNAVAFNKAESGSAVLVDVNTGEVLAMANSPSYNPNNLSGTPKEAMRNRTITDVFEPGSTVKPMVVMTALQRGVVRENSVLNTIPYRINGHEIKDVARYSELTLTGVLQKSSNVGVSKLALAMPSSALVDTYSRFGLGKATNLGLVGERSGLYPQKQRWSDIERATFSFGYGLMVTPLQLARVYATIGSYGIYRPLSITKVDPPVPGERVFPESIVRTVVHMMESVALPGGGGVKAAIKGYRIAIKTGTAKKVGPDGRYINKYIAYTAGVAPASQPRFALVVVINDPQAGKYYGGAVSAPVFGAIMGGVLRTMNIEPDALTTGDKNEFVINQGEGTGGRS
Procedure: Surface plasmon resonance (SPR) assays were performed using EcPBP3 immobilized on CM5 sensor chips (GE Healthcare) via amine-coupling chemistry in assay buffer (10 mM HEPES pH 8.0, 200 mM NaCl, 0.05% (v/v) surfactant P20). The chip surface was activated by injection (10 μL min^–1) of 0.4 M EDC and 0.1 M NHS (in a 1:1 ratio) with a 7 min contact time. Protein was diluted to 25 μg mL^–1 in 10 mM MOPS (pH 7.0) and injected over the activated sensor chip surface to reach immobilization of 1500-2500 response units. Excess hydroxysuccinimidyl groups on the chip surface were deactivated by injection (10 μL min^–1) of 1 M ethanolamine hydrochloride pH 8.0 with a 7 min contact time. Reference flow cells were prepared as described, but without ligand (EcPBP3 protein).
Binding analysis runs were performed at 37 °C in running buffer (10 mM HEPES pH 8.0, 200 mM NaCl, 0.05% (w/v) Tween-20, 2% (v/v) DMSO). Test compounds (and control runs of buffer only) were injected in running buffer over the EcPBP3 chip and reference flow cell, at flow rate of 50 μL min^–1 for 150 s contact time and 2400 s dissociation time. Each injection was followed by a wash with 50% (v/v) DMSO. All compounds were tested in at least two independent biological replicates unless otherwise stated.
Raw sensorgrams data were solvent-corrected, reference-subtracted and blank-buffer-subtracted (double-referencing) before kinetic and affinity analysis to account for non-specific binding and injection artifacts. Equilibrium dissociation constant (Kd) values was determined using the Biacore™ Insight Evaluation Software (version 4.0.8 or version 5.0.17) using kinetic fitting. Kd values presented are the geometric mean of at least two biological replicates.

`C[C@H](N)C(=O)N[C@H]1CSCCC(=O)N2CN3CN(C2)C(=O)CCSC[C@H](NC(=O)[C@H](CCCCN)NC(=O)[C@@H]2CCCN2C(=O)[C@H](Cc2ccccc2)NC(=O)[C@H](CO)NC1=O)C(=O)N1CCC[C@H]1C(=O)N[C@@H](Cc1c[nH]c2ccccc12)C(=O)N[C@@H](C1CCC1)C(=O)N[C@@H](CCC(=O)O)C(=O)NCC(=O)N[C@H](C(=O)N[C@@H](C)C(N)=O)CSCCC3=O` [Peptide 68] (HELM PEPTIDE1{A.C.S.F.P.K.C.P.W.[O=C([C@@H](N[*:1])C1CCC1)[*:2]].E.G.C.A.[am]}|CHEM1{[O=C(CC[*:1])N1CN(C(=O)CC[*:2])CN(C(=O)CC[*:3])C1]}$PEPTIDE1,CHEM1,2:R3-1:R1|PEPTIDE1,CHEM1,7:R3-1:R2|PEPTIDE1,CHEM1,13:R3-1:R3$$$V2.0) was tested, and the Kd was 187 nM.

Each compound was assayed against T1, EcPBP3 (assay: Fluorescence polarisation competition assay with fluorescent Bicycle tracer (tracer 1 / BCY12820)). Details: protein 9.4 nM sets sensitivity limit, top concentration 5 µM, read-out: Ki (nM) by fluorescence polarisation with tracer 1 (BCY12820 as tracer), Geometric mean (Lower 95% CI; Upper 95% CI, n=number of values).
Assay type: binding
Procedure: Competition fluorescence polarisation assays were run by observing the fluorescence polarisation of a fluorescent “tracer” Bicycle molecule which competes against an unlabelled peptide for binding to the EcPBP3 target. 10 µL of protein (9.4 nM) was mixed with either 5 µL of peptide or 5 µL of buffer and then the assay was initiated by the addition of 10 µL of tracer (1 nM) (final volume 25 µL), in a black 384 low bind, low volume plate (Corning). The buffer was 10 mM HEPES (Sigma), 2% (v/v) glycerol (Sigma), 300 mM NaCl (Sigma), adjusted to pH 8. The plate was incubated for 1 h at 25 °C and then read in a PHERAstar FS (BMG) using with an “FP 485 520 520” optic module (excitation 485 nm, emission 520 nm). The gain was determined immediately prior to the read on a tracer-only well.
Dotmatics (Dotmatics) workflows performing the above calculations were used to process the data. Values quoted are the geometric means of at least 2 repeats.

First: CC(C)[C@@H]1NC(=O)[C@H](Cc2c[nH]c3ccccc23)NC(=O)[C@@H]2CCCN2C(=O)[C@@H]2CSCCC(=O)N3CN(CN(C3)C(=O)CCSC[C@H](NC(=O)[C@H](C)N)C(=O)N[C@@H](CO)C(=O)N[C@@H](Cc3ccccc3)C(=O)N[C@@H](CO)C(=O)N[C@@H](CCCCNC(=N)N)C(=O)N2)C(=O)CCSC[C@@H](C(=O)N[C@@H](C)C(N)=O)NC(=O)CNC(=O)[C@H](CCC(=O)O)NC1=O [Peptide 35] (HELM PEPTIDE1{A.C.S.F.S.[N=C(N)NCCCC[C@H](N[*:1])C(=O)[*:2]].C.P.W.V.E.G.C.A.[am]}|CHEM1{[O=C(CC[*:1])N1CN(C(=O)CC[*:2])CN(C(=O)CC[*:3])C1]}$PEPTIDE1,CHEM1,2:R3-1:R1|PEPTIDE1,CHEM1,7:R3-1:R2|PEPTIDE1,CHEM1,13:R3-1:R3$$$V2.0)
Second: CC(C)[C@@H]1NC(=O)[C@H](Cc2c[nH]c3ccccc23)NC(=O)[C@@H]2CCCN2C(=O)[C@@H]2CSCCC(=O)N3CN(CN(C3)C(=O)CCSC[C@H](NC(=O)[C@H](C)N)C(=O)N[C@@H](CO)C(=O)N[C@@H](Cc3ccccc3)C(=O)N[C@@H](CC(=O)O)C(=O)N[C@@H](CCCCNC(=N)N)C(=O)N2)C(=O)CCSC[C@@H](C(=O)N[C@@H](C)C(N)=O)NC(=O)CNC(=O)[C@H](CCC(=O)O)NC1=O [Peptide 38] (HELM PEPTIDE1{A.C.S.F.D.[N=C(N)NCCCC[C@H](N[*:1])C(=O)[*:2]].C.P.W.V.E.G.C.A.[am]}|CHEM1{[O=C(CC[*:1])N1CN(C(=O)CC[*:2])CN(C(=O)CC[*:3])C1]}$PEPTIDE1,CHEM1,2:R3-1:R1|PEPTIDE1,CHEM1,7:R3-1:R2|PEPTIDE1,CHEM1,13:R3-1:R3$$$V2.0)
The Ki of the first is 3.1-fold lower: 53.4 nM for the first, 167 nM for the second.

Compared with `CC(C)[C@@H]1NC(=O)[C@H](Cc2c[nH]c3ccccc23)NC(=O)[C@@H]2CCCN2C(=O)[C@@H]2CSCCC(=O)N3CN(CN(C3)C(=O)CCSC[C@H](NC(=O)[C@H](C)N)C(=O)N[C@@H](CO)C(=O)N[C@@H](Cc3ccccc3)C(=O)N[C@@H]([C@@H](C)O)C(=O)N[C@@H](CCCCNC(=N)N)C(=O)N2)C(=O)CCSC[C@@H](C(=O)N[C@@H](C)C(N)=O)NC(=O)CNC(=O)[C@H](CCC(=O)O)NC1=O` [Peptide 36] (HELM PEPTIDE1{A.C.S.F.T.[N=C(N)NCCCC[C@H](N[*:1])C(=O)[*:2]].C.P.W.V.E.G.C.A.[am]}|CHEM1{[O=C(CC[*:1])N1CN(C(=O)CC[*:2])CN(C(=O)CC[*:3])C1]}$PEPTIDE1,CHEM1,2:R3-1:R1|PEPTIDE1,CHEM1,7:R3-1:R2|PEPTIDE1,CHEM1,13:R3-1:R3$$$V2.0), `CC(C)[C@@H]1NC(=O)[C@H](Cc2c[nH]c3ccccc23)NC(=O)[C@@H]2CCCN2C(=O)[C@@H]2CSCCC(=O)N3CN(CN(C3)C(=O)CCSC[C@H](NC(=O)[C@H](C)N)C(=O)N[C@@H](CO)C(=O)N[C@@H](Cc3ccccc3)C(=O)N[C@@H](Cc3ccc(O)cc3)C(=O)N[C@@H](CCCCNC(=N)N)C(=O)N2)C(=O)CCSC[C@@H](C(=O)N[C@@H](C)C(N)=O)NC(=O)CNC(=O)[C@H](CCC(=O)O)NC1=O` [Peptide 34] (HELM PEPTIDE1{A.C.S.F.Y.[N=C(N)NCCCC[C@H](N[*:1])C(=O)[*:2]].C.P.W.V.E.G.C.A.[am]}|CHEM1{[O=C(CC[*:1])N1CN(C(=O)CC[*:2])CN(C(=O)CC[*:3])C1]}$PEPTIDE1,CHEM1,2:R3-1:R1|PEPTIDE1,CHEM1,7:R3-1:R2|PEPTIDE1,CHEM1,13:R3-1:R3$$$V2.0) is 2.8-fold lower in Ki: 75 nM for the first, 27.1 nM for the second.

Compared with `CC(C)C[C@@H]1NC(=O)[C@H](C(C)C)NC(=O)[C@H](Cc2c[nH]c3ccccc23)NC(=O)[C@@H]2CCCN2C(=O)[C@@H]2CSCCC(=O)N3CN(CN(C3)C(=O)CCSC[C@H](NC(=O)[C@H](C)N)C(=O)N[C@@H](CO)C(=O)N[C@@H](Cc3ccccc3)C(=O)N3CCC[C@H]3C(=O)N[C@@H](CCCCNC(=N)N)C(=O)N2)C(=O)CCSC[C@@H](C(=O)N[C@@H](C)C(N)=O)NC(=O)CNC1=O` [Peptide 48] (HELM PEPTIDE1{A.C.S.F.P.[N=C(N)NCCCC[C@H](N[*:1])C(=O)[*:2]].C.P.W.V.L.G.C.A.[am]}|CHEM1{[O=C(CC[*:1])N1CN(C(=O)CC[*:2])CN(C(=O)CC[*:3])C1]}$PEPTIDE1,CHEM1,2:R3-1:R1|PEPTIDE1,CHEM1,7:R3-1:R2|PEPTIDE1,CHEM1,13:R3-1:R3$$$V2.0), `CC(C)[C@@H]1NC(=O)[C@H](Cc2c[nH]c3ccccc23)NC(=O)[C@@H]2CCCN2C(=O)[C@@H]2CSCCC(=O)N3CN(CN(C3)C(=O)CCSC[C@H](NC(=O)[C@H](C)N)C(=O)N[C@@H](CCC(=O)O)C(=O)N[C@@H](Cc3ccccc3)C(=O)N3CCC[C@H]3C(=O)N[C@@H](CCCCNC(=N)N)C(=O)N2)C(=O)CCSC[C@@H](C(=O)N[C@@H](C)C(N)=O)NC(=O)CNC(=O)[C@H](CCC(=O)O)NC1=O` [Peptide 31] (HELM PEPTIDE1{A.C.E.F.P.[N=C(N)NCCCC[C@H](N[*:1])C(=O)[*:2]].C.P.W.V.E.G.C.A.[am]}|CHEM1{[O=C(CC[*:1])N1CN(C(=O)CC[*:2])CN(C(=O)CC[*:3])C1]}$PEPTIDE1,CHEM1,2:R3-1:R1|PEPTIDE1,CHEM1,7:R3-1:R2|PEPTIDE1,CHEM1,13:R3-1:R3$$$V2.0) is lower in Ki: 49.7 nM for the first, less than 9 nM for the second.

Compared with `CC(C)[C@@H]1NC(=O)[C@H](Cc2c[nH]c3ccccc23)NC(=O)[C@@H]2CCCN2C(=O)[C@@H]2CSCCC(=O)N3CN(CN(C3)C(=O)CCSC[C@H](NC(=O)[C@H](C)N)C(=O)NCC(=O)N[C@@H](Cc3ccccc3)C(=O)N3CCC[C@H]3C(=O)N[C@@H](CCCCNC(=N)N)C(=O)N2)C(=O)CCSC[C@@H](C(=O)N[C@@H](C)C(N)=O)NC(=O)CNC(=O)[C@H](CCC(=O)O)NC1=O` [Peptide 26] (HELM PEPTIDE1{A.C.G.F.P.[N=C(N)NCCCC[C@H](N[*:1])C(=O)[*:2]].C.P.W.V.E.G.C.A.[am]}|CHEM1{[O=C(CC[*:1])N1CN(C(=O)CC[*:2])CN(C(=O)CC[*:3])C1]}$PEPTIDE1,CHEM1,2:R3-1:R1|PEPTIDE1,CHEM1,7:R3-1:R2|PEPTIDE1,CHEM1,13:R3-1:R3$$$V2.0), `CC(C)[C@@H]1NC(=O)[C@H](Cc2c[nH]cn2)NC(=O)[C@@H]2CCCN2C(=O)[C@@H]2CSCCC(=O)N3CN(CN(C3)C(=O)CCSC[C@H](NC(=O)[C@H](C)N)C(=O)N[C@@H](CO)C(=O)N[C@@H](Cc3ccccc3)C(=O)N3CCC[C@H]3C(=O)N[C@@H](CCCCNC(=N)N)C(=O)N2)C(=O)CCSC[C@@H](C(=O)N[C@@H](C)C(N)=O)NC(=O)CNC(=O)[C@H](CCC(=O)O)NC1=O` [Peptide 44] (HELM PEPTIDE1{A.C.S.F.P.[N=C(N)NCCCC[C@H](N[*:1])C(=O)[*:2]].C.P.H.V.E.G.C.A.[am]}|CHEM1{[O=C(CC[*:1])N1CN(C(=O)CC[*:2])CN(C(=O)CC[*:3])C1]}$PEPTIDE1,CHEM1,2:R3-1:R1|PEPTIDE1,CHEM1,7:R3-1:R2|PEPTIDE1,CHEM1,13:R3-1:R3$$$V2.0) is higher in Ki: 17.1 nM for the first, greater than 5000 nM for the second.
